Measurements from PMC6245447, “Effect of Dehydroaltenusin-C12 Derivative, a Selective DNA Polymerase α Inhibitor, on DNA Replication in Cultured Cells” (Molecules, 2008).
Where two headings read alike, the source gives them in different places.

Molecular target: T1, DNA polymerase α (calf thymus pol α) (Bos taurus, UniProt A0AAA9TD94)
T1 construct: gene POLA1; pol α purified from calf thymus
T1 sequence (A0AAA9TD94 1-1441): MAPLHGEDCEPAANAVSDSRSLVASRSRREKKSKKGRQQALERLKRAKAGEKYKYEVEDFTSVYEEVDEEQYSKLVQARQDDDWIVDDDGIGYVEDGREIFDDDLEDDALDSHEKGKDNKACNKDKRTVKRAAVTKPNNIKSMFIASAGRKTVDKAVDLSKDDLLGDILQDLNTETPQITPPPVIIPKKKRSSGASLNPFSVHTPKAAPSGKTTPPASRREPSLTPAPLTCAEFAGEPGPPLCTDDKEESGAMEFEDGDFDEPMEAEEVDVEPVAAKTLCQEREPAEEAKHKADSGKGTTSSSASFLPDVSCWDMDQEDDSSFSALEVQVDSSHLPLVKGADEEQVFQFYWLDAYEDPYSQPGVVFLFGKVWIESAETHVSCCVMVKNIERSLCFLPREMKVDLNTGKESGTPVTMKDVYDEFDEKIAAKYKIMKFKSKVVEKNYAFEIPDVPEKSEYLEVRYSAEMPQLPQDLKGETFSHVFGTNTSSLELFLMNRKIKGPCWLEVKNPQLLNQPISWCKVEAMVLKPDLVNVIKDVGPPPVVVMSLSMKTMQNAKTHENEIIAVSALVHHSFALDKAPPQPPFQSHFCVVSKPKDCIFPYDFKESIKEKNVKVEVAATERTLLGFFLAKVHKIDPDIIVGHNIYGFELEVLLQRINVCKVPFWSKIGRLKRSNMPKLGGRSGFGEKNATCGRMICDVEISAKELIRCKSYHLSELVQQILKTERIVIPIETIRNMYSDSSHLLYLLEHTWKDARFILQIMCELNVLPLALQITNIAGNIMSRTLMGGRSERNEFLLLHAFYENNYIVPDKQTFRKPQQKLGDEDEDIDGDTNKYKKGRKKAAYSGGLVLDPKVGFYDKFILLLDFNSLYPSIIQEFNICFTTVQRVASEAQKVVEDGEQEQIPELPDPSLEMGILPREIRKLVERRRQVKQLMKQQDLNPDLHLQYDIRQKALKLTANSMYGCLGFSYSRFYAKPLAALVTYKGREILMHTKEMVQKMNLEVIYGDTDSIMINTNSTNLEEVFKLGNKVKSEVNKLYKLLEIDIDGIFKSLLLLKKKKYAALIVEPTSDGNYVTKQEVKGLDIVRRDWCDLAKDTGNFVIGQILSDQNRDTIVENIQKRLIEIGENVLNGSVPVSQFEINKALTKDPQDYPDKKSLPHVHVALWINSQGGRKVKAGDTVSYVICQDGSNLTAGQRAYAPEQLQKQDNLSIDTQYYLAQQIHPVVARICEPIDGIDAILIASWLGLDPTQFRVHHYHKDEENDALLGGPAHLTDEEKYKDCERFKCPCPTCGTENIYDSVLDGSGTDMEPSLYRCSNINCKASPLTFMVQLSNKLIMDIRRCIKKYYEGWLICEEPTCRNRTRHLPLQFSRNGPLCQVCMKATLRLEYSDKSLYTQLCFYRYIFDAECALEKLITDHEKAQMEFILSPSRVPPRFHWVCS
Assay: [3H]-dTTP incorporation polymerase assay on poly(dA)/oligo(dT)[…]-18 with purified pol α
Format: biochemical

Compound	IC50 (read-out: IC50) [µM]	IC50 [µM]
CCCCCCCCCCCCOc1cc(O)c2c(c1)C1=CC(=O)C(O)=CC1(C)OC2=O (stereo not drawn) [compound 2, C12]	1.4	–
C[C@@]1(CO)[C@H](O)CC[C@@]2(C)[C@H]1CC[C@H]1C[C@@H]3C[C@@]12CC[C@]3(O)CO [compound 3, aphidicolin]	–	14.5
COc1cc(O)c2c(c1)C1=CC(=O)C(O)=CC1(C)OC2=O (stereo not drawn) [compound 1, Dehydroaltenusin]	9.9	–
